According to patent publication US9211310B2, “Use of a Chinese medicine composition in preparing medicaments for treating secondary prevention of myocardial infarction” (TASLY PHARMACEUTICAL GROUP CO., LTD, priority 2010, dated 2015):

System: patients after acute myocardial infarction
Assay: TCM symptom score, total and single (chest pain, chest tightness, short breath, fatigue, palpitation, spontaneous perspiration, pale complexion), same clinical trial
Assay type: in vivo, human
Design: total score of TCM symptom, Mean / total score of TCM symptom, Min / total score of TCM symptom, Max / total score of TCM symptom, Md / change of total score of TCM symptom, Mean / change of total score of TCM symptom, Max / change of total score of TCM symptom, Md: scale not given here
Conditions: PP
From the text: 3508 patients who were in accordance with the diagnostic standards of AMI for 28 days to 2 years and differentiated as Qi deficiency and blood stagnation syndrome by TCM were studied. 0.5 g Chinese medicine composition prepared by the method of EXAMPLE 1 (Coded as QSYQ) was administrated half an hour after meal, 3 times per day.
They included the overall survival time, angina pectoris score, TCM symptom score and life quality score, where angina pectoris score, TCM symptom score and life quality score were evaluated at randomization, in 1st, 3rd, 6th, 9th, 12th month after treatment and 18th month after follow-up.
The analysis method referred to the angina pectoris score.

[1] = 6 months after treatment-baseline
[2] = 9 months after treatment-baseline

CC(=O)Oc1ccccc1C(=O)O [Control group, aspirine]
change of spontaneous perspiration 0, number of patients [1]: 774 | change of spontaneous perspiration 0, percent of patients [1]: (54.32%) | change of spontaneous perspiration 1, number of patients [1]: 414 | change of spontaneous perspiration 1, percent of patients [1]: (29.05%) | change of spontaneous perspiration 2, number of patients [1]: 88 | change of spontaneous perspiration 2, percent of patients [1]: (6.18%) | change of spontaneous perspiration 3, number of patients [1]: 24 | change of spontaneous perspiration 3, percent of patients [1]: (1.68%) | change of spontaneous perspiration −1, number of patients [1]: 105 | change of spontaneous perspiration −1, percent of patients [1]: (7.37%) | change of spontaneous perspiration −2, number of patients [1]: 20 | change of spontaneous perspiration −2, percent of patients [1]: (1.40%) | change of spontaneous perspiration −3, number of patients [1]: 0 | change of spontaneous perspiration −3, percent of patients [1]: (0.00%) | change of total score of TCM symptom, Max [1]: 19.00 | change of total score of TCM symptom, Md [1]: −3.00 | change of total score of TCM symptom, Mean [1]: −4.11 | change of total score of TCM symptom, Min [1]: −28.00 | distribution of total score of TCM symptom: Medium, number of patients (9 months after treatment): 323 | distribution of total score of TCM symptom: Medium, percentage of patients (9 months after treatment): (22.84%) | distribution of total score of TCM symptom: Mild, number of patients (9 months after treatment): 1088 | distribution of total score of TCM symptom: Mild, percentage of patients (9 months after treatment): (76.94%) | distribution of total score of TCM symptom: Severe, number of patients (9 months after treatment): 3 | distribution of total score of TCM symptom: Severe, percentage of patients (9 months after treatment): (0.21%) | fatigue score 0, % of patients (9 months after treatment): (35.22%) | fatigue score 0, number of patients (9 months after treatment): 498 | fatigue score 2, % of patients (9 months after treatment): (60.61%) | fatigue score 2, number of patients (9 months after treatment): 857 | fatigue score 4, % of patients (9 months after treatment): (3.47%) | fatigue score 4, number of patients (9 months after treatment): 49 | fatigue score 6, % of patients (9 months after treatment): (0.71%) | fatigue score 6, number of patients (9 months after treatment): 10 | pale complexion score 0, number of patients (9 months after treatment): 788 | pale complexion score 0, percent of patients (9 months after treatment): (55.69%) | pale complexion score 1, number of patients (9 months after treatment): 520 | pale complexion score 1, percent of patients (9 months after treatment): (36.75%) | pale complexion score 2, number of patients (9 months after treatment): 101 | pale complexion score 2, percent of patients (9 months after treatment): (7.14%) | pale complexion score 3, number of patients (9 months after treatment): 6 | pale complexion score 3, percent of patients (9 months after treatment): (0.42%) | palpitation score 0, number of patients (9 months after treatment): 496 | palpitation score 0, percent of patients (9 months after treatment): (35.05%) | palpitation score 2, number of patients (9 months after treatment): 782 | palpitation score 2, percent of patients (9 months after treatment): (55.27%) | palpitation score 4, number of patients (9 months after treatment): 122 | palpitation score 4, percent of patients (9 months after treatment): (8.62%) | palpitation score 6, number of patients (9 months after treatment): 15 | palpitation score 6, percent of patients (9 months after treatment): (1.06%) | short breath score 0, % of patients (9 months after treatment): (29.42%) | short breath score 0, number of patients (9 months after treatment): 416 | short breath score 3, % of patients (9 months after treatment): (58.27%) | short breath score 3, number of patients (9 months after treatment): 824 | short breath score 6, % of patients (9 months after treatment): (11.95%) | short breath score 6, number of patients (9 months after treatment): 169 | short breath score 9, % of patients (9 months after treatment): (0.35%) | short breath score 9, number of patients (9 months after treatment): 5 | spontaneous perspiration score 0, number of patients (9 months after treatment): 678 | spontaneous perspiration score 0, percent of patients (9 months after treatment): (47.95%) | spontaneous perspiration score 1, number of patients (9 months after treatment): 652 | spontaneous perspiration score 1, percent of patients (9 months after treatment): (46.11%) | spontaneous perspiration score 2, number of patients (9 months after treatment): 79 | spontaneous perspiration score 2, percent of patients (9 months after treatment): (5.59%) | spontaneous perspiration score 3, number of patients (9 months after treatment): 5 | spontaneous perspiration score 3, percent of patients (9 months after treatment): (0.35%) | total score of TCM symptom, Max (9 months after treatment): 37.00 | total score of TCM symptom, Md (9 months after treatment): 8.00 | total score of TCM symptom, Mean (9 months after treatment): 8.88 | total score of TCM symptom, Min (9 months after treatment): 0.00 | change of fatigue 0, % of patients [2]: (48.12%) | change of fatigue 0, number of patients [2]: 679 | change of fatigue 2, % of patients [2]: (35.65%) | change of fatigue 2, number of patients [2]: 503 | change of fatigue 4, % of patients [2]: (7.94%) | change of fatigue 4, number of patients [2]: 112 | change of fatigue 6, % of patients [2]: (1.28%) | change of fatigue 6, number of patients [2]: 18 | change of fatigue −2, % of patients [2]: (6.52%) | change of fatigue −2, number of patients [2]: 92 | change of fatigue −4, % of patients [2]: (0.50%) | change of fatigue −4, number of patients [2]: 7 | change of fatigue −6, % of patients [2]: (0.00%) | change of fatigue −6, number of patients [2]: 0 | change of pale complexion 0, number of patients [2]: 1049 | change of pale complexion 0, percent of patients [2]: (74.66%) | change of pale complexion 1, number of patients [2]: 316 | change of pale complexion 1, percent of patients [2]: (22.49%) | change of pale complexion −1, number of patients [2]: 40 | change of pale complexion −1, percent of patients [2]: (2.85%) | change of palpitation 0, number of patients [2]: 749 | change of palpitation 0, percent of patients [2]: (53.12%) | change of palpitation 1, number of patients [2]: 493 | change of palpitation 1, percent of patients [2]: (34.96%) | change of palpitation 2, number of patients [2]: 71 | change of palpitation 2, percent of patients [2]: (5.04%) | change of palpitation 3, number of patients [2]: 6 | change of palpitation 3, percent of patients [2]: (0.43%) | change of palpitation −1, number of patients [2]: 87 | change of palpitation −1, percent of patients [2]: (6.17%) | change of palpitation −2, number of patients [2]: 4 | change of palpitation −2, percent of patients [2]: (0.28%) | change of short breath 0, % of patients [2]: (56.60%) | change of short breath 0, number of patients [2]: 798 | change of short breath 2, % of patients [2]: (33.33%) | change of short breath 2, number of patients [2]: 470 | change of short breath 4, % of patients [2]: (3.83%) | change of short breath 4, number of patients [2]: 54 | change of short breath 6, % of patients [2]: (0.50%) | change of short breath 6, number of patients [2]: 7 | change of short breath −2, % of patients [2]: (5.53%) | change of short breath −2, number of patients [2]: 78 | change of short breath −4, % of patients [2]: (0.14%) | change of short breath −4, number of patients [2]: 2 | change of short breath −6, % of patients [2]: (0.07%) | change of short breath −6, number of patients [2]: 1 | change of spontaneous perspiration 0, number of patients [2]: 717 | change of spontaneous perspiration 0, percent of patients [2]: (50.85%) | change of spontaneous perspiration 1, number of patients [2]: 434 | change of spontaneous perspiration 1, percent of patients [2]: (30.78%) | change of spontaneous perspiration 2, number of patients [2]: 105 | change of spontaneous perspiration 2, percent of patients [2]: (7.45%) | change of spontaneous perspiration 3, number of patients [2]: 26 | change of spontaneous perspiration 3, percent of patients [2]: (1.84%) | change of spontaneous perspiration −1, percent of patients [2]: (8.65%) | change of spontaneous perspiration −2, number of patients [2]: 6
